Tests used:
[1] = molecular target: T1, Prostaglandin D2 receptor 2 (Homo sapiens, UniProt Q9Y5Y4); experiment: Antagonist activity at CRTh2 (unknown origin) stably expressed in PGD2-stimulated CHO.K1 cells preincubated for 1 hr by radio-labelled [35S]-GTPgammaS binding assay; format: functional, cell-based
T1 sequence (Q9Y5Y4 whole entry): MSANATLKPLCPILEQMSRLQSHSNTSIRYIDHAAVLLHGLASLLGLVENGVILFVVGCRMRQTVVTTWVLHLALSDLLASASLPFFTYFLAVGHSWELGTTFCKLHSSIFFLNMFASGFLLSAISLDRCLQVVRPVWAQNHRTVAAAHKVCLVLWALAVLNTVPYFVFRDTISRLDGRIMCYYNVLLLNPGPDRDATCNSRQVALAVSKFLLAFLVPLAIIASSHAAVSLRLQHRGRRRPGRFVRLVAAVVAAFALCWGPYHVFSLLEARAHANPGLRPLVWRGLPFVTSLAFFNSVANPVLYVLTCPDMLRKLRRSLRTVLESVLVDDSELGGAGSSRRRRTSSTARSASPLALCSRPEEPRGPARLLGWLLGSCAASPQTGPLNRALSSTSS

[2] = Volume of distribution at steady state in rat at 1 mg/kg, iv; format: ADME, organism-based; design: dose 1 mg/kg, route intravenous; settings: in vivo, read-out: Vdss
[3] = molecular target: T2, Thromboxane A2 receptor (Homo sapiens) (UniProt P21731); experiment: Inhibition of at prostanoid TP receptor (unknown origin) at 10 uM
T2 sequence (whole entry): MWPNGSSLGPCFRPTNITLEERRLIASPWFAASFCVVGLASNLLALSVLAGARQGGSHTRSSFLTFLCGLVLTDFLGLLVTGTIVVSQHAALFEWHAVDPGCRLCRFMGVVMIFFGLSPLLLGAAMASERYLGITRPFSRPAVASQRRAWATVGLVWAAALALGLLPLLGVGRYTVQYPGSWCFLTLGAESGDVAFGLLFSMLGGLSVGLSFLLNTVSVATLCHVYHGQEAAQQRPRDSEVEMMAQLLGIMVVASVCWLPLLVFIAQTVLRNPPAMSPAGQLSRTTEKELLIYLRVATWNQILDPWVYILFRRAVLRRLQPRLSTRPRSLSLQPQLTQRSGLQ

[4] = Dissociation constant, pKa of the compound by potentiometric method; format: physicochemical
[5] = molecular target: T1, Prostaglandin D2 receptor 2; experiment: Antagonist activity at CRTh2 (unknown origin) stably expressed in PGD2-stimulated CHO.K1 cells preincubated for 120 mins by radio-labelled [35S]-GTPgammaS binding assay; format: functional, cell-based
[6] = molecular target: T1, Prostaglandin D2 receptor 2; experiment: Antagonist activity at CRTh2 (unknown origin) stably expressed in PGD2-stimulated CHO.K1 cells preincubated for 15 mins by radio-labelled [35S]-GTPgammaS binding assay; format: functional, cell-based
[7] = molecular target: T3, Prostaglandin D2 receptor 2 (Homo sapiens) (UniProt Q9Y5Y4); settings: CHO.K1
T3 sequence (whole entry): T1 sequence (Q9Y5Y4 whole entry)
Description: Antagonist activity at CRTh2 (unknown origin) stably expressed in PGD2-stimulated CHO.K1 cells assessed as dissociation half-life at 5 to 10 times IC50 after 2 hrs by radio-labelled [35S]-GTPgammaS binding assay

[8] = molecular target: T1, Prostaglandin D2 receptor 2; experiment: Antagonist activity at CRTh2 (unknown origin) stably expressed in PGD2-stimulated CHO.K1 cells preincubated for 180 mins by radio-labelled [35S]-GTPgammaS binding assay; format: functional, cell-based
[9] = molecular target: T4, Prostaglandin D2 receptor (Homo sapiens) (UniProt Q13258); experiment: Inhibition of at prostanoid DP1 receptor (unknown origin) at 10 uM
T4 sequence (whole entry): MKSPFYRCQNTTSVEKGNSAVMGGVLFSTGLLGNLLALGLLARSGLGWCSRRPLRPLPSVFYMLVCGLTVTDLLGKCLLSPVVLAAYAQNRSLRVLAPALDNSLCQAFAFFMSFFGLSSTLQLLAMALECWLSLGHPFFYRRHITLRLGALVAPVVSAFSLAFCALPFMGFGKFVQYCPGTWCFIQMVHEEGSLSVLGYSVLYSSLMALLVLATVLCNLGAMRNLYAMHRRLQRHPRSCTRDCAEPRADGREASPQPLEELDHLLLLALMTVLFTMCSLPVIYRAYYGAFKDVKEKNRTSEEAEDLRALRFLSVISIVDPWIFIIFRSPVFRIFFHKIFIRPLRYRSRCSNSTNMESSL

[10] = Cmax in rat at 1 mg/kg, iv; format: ADME, organism-based; design: dose 1 mg/kg, route intravenous; settings: in vivo
[11] = Terminal half life in rat at 1 mg/kg, iv; format: ADME, organism-based; design: dose 1 mg/kg, route intravenous; settings: in vivo, read-out: beta t1/2 (converted)
[12] = AUC (0 to infinity) in rat at 10 mg/kg, po; format: ADME, organism-based; design: time infinity, dose 10 mg/kg, route oral; settings: plasma
[13] = molecular target: T1, Prostaglandin D2 receptor 2; experiment: Antagonist activity at CRTh2 (unknown origin) stably expressed in PGD2-stimulated CHO.K1 cells preincubated for 60 mins by radio-labelled [35S]-GTPgammaS binding assay; format: functional, cell-based
[14] = AUC (0 to infinity) in rat at 1 mg/kg, iv; format: ADME, organism-based; design: time infinity, dose 1 mg/kg, route intravenous; settings: plasma
[15] = molecular target: T1, Prostaglandin D2 receptor 2; experiment: Antagonist activity at CRTh2 (unknown origin) stably expressed in CHO.K1 cells co-mixing the compound and PGD2 by radio-labelled [35S]-GTPgammaS binding assay; format: functional, cell-based
[16] = Clearance in rat at 1 mg/kg, iv; format: ADME, organism-based; design: dose 1 mg/kg, route intravenous; settings: in vivo
[17] = Terminal half life in rat at 10 mg/kg, po; format: ADME, organism-based; design: dose 10 mg/kg, route oral; settings: in vivo, read-out: beta t1/2 (converted)
[18] = molecular target: T1, Prostaglandin D2 receptor 2; experiment: Antagonist activity at CRTh2 (unknown origin) stably expressed in PGD2-stimulated CHO.K1 cells preincubated for 30 mins by radio-labelled [35S]-GTPgammaS binding assay; format: functional, cell-based
[19] = Cmax in rat at 10 mg/kg, po; format: ADME, organism-based; design: dose 10 mg/kg, route oral; settings: in vivo
[20] = Oral bioavailability in rat at 10 mg/kg; format: ADME, organism-based; settings: in vivo
[21] = Apparent permeability across apical to basolateral side of human Caco2 cells at pH 7.4; format: ADME, cell-based; settings: Caco-2, pH 7.4

SMILES | IC50 [1] [nM] | T1/2 [7] [h] | further results
COc1ccc(S(=O)(=O)c2ccc(F)cc2)c(Cc2c3c(n(CC(=O)O)c2C)CCNC3=O)c1 | 7.1 | 23 | Vd [2]: 0.31 L/kg; inhibition [3]: < 30%; pKa [4]: 3.1; IC50 [5]: 2.4 nM; IC50 [6]: 6.9 nM; IC50 [8]: 2.1 nM; inhibition [9]: < 30%; Cmax [10]: 1960 ng/mL; half-life [11]: 0.3 h; AUC(0-inf) [12]: 76 ng·h/mL; IC50 [13]: 3.6 nM; AUC(0-inf) [14]: 613 ng·h/mL; IC50 [15]: 10 nM; clearance [16]: 27 mL/min/kg; half-life [17]: 2.2 h; IC50 [18]: 4.1 nM; Cmax [19]: 36 ng/mL; bioavailability [20]: 1.2%
Cc1c(Cc2ccccc2S(=O)(=O)N(C)Cc2ccccc2)c2c(n1CC(=O)O)CCNC2=O | 26 | 0.6 | 
Cc1c(Cc2ccccc2Cc2ccccc2)c2c(n1CC(=O)O)CCNC2=O | 120 |  | Papp A→B [21]: 0.2 ×10⁻⁶ cm/s
Cc1c(Cc2ccccc2Cn2ccnn2)c2c(n1CC(=O)O)CCNC2=O | 800 |  | 
COC(=O)c1ccc(Cc2c3c(n(CC(=O)O)c2C)CCNC3=O)c(S(=O)(=O)c2ccccc2)c1 |  | 1.8 | 
COc1ccc(S(=O)(=O)c2ccccc2)c(Cc2c3c(n(CC(=O)O)c2C)CCNC3=O)c1 |  | 4.2 | inhibition [3]: < 30%; inhibition [9]: < 30%
Cc1c(Cc2ccccc2S(=O)(=O)c2ccccc2)c2c(n1CC(=O)O)CCN(C(C)C)C2=O | 9 | 2.6 | pKa [4]: 2.9
Cc1c(Cc2ccccc2S(=O)(=O)N2CCOCC2)c2c(n1CC(=O)O)CCNC2=O | 22 | 0.6 | 
Cc1c(Cc2ccccc2S(=O)(=O)c2ccccc2)c2c(n1CC(=O)O)CCN(C)C2=O | 7 | 5.3 | pKa [4]: 2.9
COc1ccc(S(=O)(=O)c2ccccc2Cc2c3c(n(CC(=O)O)c2C)CCNC3=O)cc1 |  | 3.2 | 
Cc1c(Cc2cc(C#N)ccc2S(=O)(=O)c2ccccc2)c2c(n1CC(=O)O)CCNC2=O | 28 | 0.6 | 
Cc1c(Cc2ccccc2S(=O)(=O)c2ccccc2)c2c(n1[C@@H](C)C(=O)O)CCNC2=O | 91 |  | 
Cc1c(Cc2ccc(S(=O)(=O)c3ccccc3)cc2)c2c(n1CC(=O)O)CCNC2=O | 170 |  | 

More lines, main results first:

IC50 [1] [nM] | T1/2 [7] [h] | SMILES | further results
240 |  | CCN(Cc1ccccc1Cc1c2c(n(CC(=O)O)c1C)CCNC2=O)C(=O)C1CC1 | 
900 |  | Cc1c(Cc2ccc(S(C)(=O)=O)cc2)c2c(n1CC(=O)O)CCNC2=O | 
430 |  | Cc1c(Cc2ccccc2S(=O)(=O)c2ccccc2)c2c(n1[C@H](C)C(=O)O)CCNC2=O | 
28 |  | Cc1c(Cc2ccccc2S(=O)(=O)C2CCCCC2)c2c(n1CC(=O)O)CCNC2=O | 
480 |  | Cc1c(Cc2ccccc2-c2cccc3ccccc23)c2c(n1CC(=O)O)CCNC2=O | 
 | 0.4 | COc1cccc(Cc2c3c(n(CC(=O)O)c2C)CCNC3=O)c1S(=O)(=O)c1ccccc1 | 
 | 1.7 | Cc1c(Cc2cc(F)ccc2S(=O)(=O)c2ccccc2)c2c(n1CC(=O)O)CCNC2=O | 
6.6 | 1.3 | Cc1c(Cc2ccccc2S(=O)(=O)c2ccc(OC(F)(F)F)cc2)c2c(n1CC(=O)O)CCNC2=O | 
 | 6.7 | Cc1c(Cc2ccccc2S(=O)(=O)c2ccccc2)c2c(n1CC(=O)O)CCN(Cc1ccccc1)C2=O | inhibition [3]: < 30%; pKa [4]: 3.3; inhibition [9]: < 30%
 | 1.3 | Cc1c(Cc2ccccc2S(=O)(=O)c2ccccc2)c2c(=O)[nH]ccc2n1CC(=O)O | Papp A→B [21]: 0.1 ×10⁻⁶ cm/s

— ChEMBL document CHEMBL3351921, “Structure-activity relationships (SAR) and structure-kinetic relationships (SKR) of pyrrolopiperidinone acetic acids as CRTh2 antagonists” (Bioorg Med Chem Lett, 2014)
